Results as given in the NIST ThermoML archive (doi:10.1016/j.jct.2014.07.019).
± gives the expanded uncertainty stated by the source.

Assay: xn = mol fraction of the nth substance listed
Conditions: 100 kPa, Liquid; for speed of sound: Frequency=3 MHz, Sing-around technique in a fixed-path interferometer; for mass density: Vibrating tube method

CCCCOCC(C)O (stereo not given) [1-butoxy-2-propanol] + CCCCO
Conditions	mass density, 293.15 K [kg/m3]	mass density, 298.15 K [kg/m3]	mass density, 303.15 K [kg/m3]	mass density, 308.15 K [kg/m3]	mass density, 313.15 K [kg/m3]	speed of sound, 293.15 K [m/s]	speed of sound, 298.15 K [m/s]	speed of sound, 303.15 K [m/s]	speed of sound, 308.15 K [m/s]	speed of sound, 313.15 K [m/s]
x1 = 0.0519	815.814 ± 0.15	811.979 ± 0.15	808.09 ± 0.15	804.168 ± 0.15	800.279 ± 0.15	1259.9 ± 1.2	1243.7 ± 1.2	1227.1 ± 1.2	1210.6 ± 1.2	1193 ± 1.2
x1 = 0.0992	821.015 ± 0.15	817.166 ± 0.15	813.235 ± 0.15	809.277 ± 0.15	805.328 ± 0.15	1262.1 ± 1.2	1246.1 ± 1.2	1229.4 ± 1.2	1212.9 ± 1.2	1194.8 ± 1.2
x1 = 0.1522	826.515 ± 0.15	822.607 ± 0.15	818.628 ± 0.15	814.607 ± 0.15	810.63 ± 0.15	1264.4 ± 1.2	1248.7 ± 1.2	1232 ± 1.2	1215.4 ± 1.2	1196.7 ± 1.2
x1 = 0.2025	831.372 ± 0.14	827.404 ± 0.15	823.395 ± 0.15	819.351 ± 0.15	815.31 ± 0.15	1266.4 ± 1.2	1250.8 ± 1.2	1234.1 ± 1.2	1217.4 ± 1.2	1198.4 ± 1.2
x1 = 0.2533	835.963 ± 0.14	831.953 ± 0.15	827.91 ± 0.15	823.833 ± 0.15	819.767 ± 0.15	1268.2 ± 1.2	1252.7 ± 1.2	1235.8 ± 1.2	1219 ± 1.2	1199.9 ± 1.2
x1 = 0.3031	840.187 ± 0.14	836.14 ± 0.14	832.063 ± 0.15	827.949 ± 0.15	823.842 ± 0.15	1269.8 ± 1.2	1254.1 ± 1.2	1237.2 ± 1.2	1220.3 ± 1.2	1201.2 ± 1.2
x1 = 0.4039	847.844 ± 0.14	843.734 ± 0.14	839.592 ± 0.15	835.411 ± 0.15	831.226 ± 0.15	1272.5 ± 1.2	1256.4 ± 1.2	1239.4 ± 1.2	1222.4 ± 1.2	1203.2 ± 1.2
x1 = 0.4992	854.333 ± 0.14	850.165 ± 0.14	845.969 ± 0.15	841.732 ± 0.15	837.498 ± 0.15	1274.5 ± 1.2	1258.4 ± 1.2	1241.2 ± 1.2	1224 ± 1.2	1204.8 ± 1.2
x1 = 0.6055	860.746 ± 0.14	856.533 ± 0.14	852.278 ± 0.15	847.986 ± 0.15	843.678 ± 0.15	1276.3 ± 1.2	1260.1 ± 1.2	1242.8 ± 1.2	1225.4 ± 1.2	1206.2 ± 1.2
x1 = 0.7017	865.941 ± 0.14	861.685 ± 0.14	857.378 ± 0.15	853.038 ± 0.15	848.688 ± 0.15	1277.4 ± 1.2	1260.8 ± 1.2	1243.5 ± 1.2	1226.1 ± 1.2	1207 ± 1.2
x1 = 0.8058	871.007 ± 0.14	866.701 ± 0.15	862.345 ± 0.15	857.961 ± 0.15	853.562 ± 0.15	1278.3 ± 1.2	1261.3 ± 1.2	1243.9 ± 1.2	1226.4 ± 1.2	1207.5 ± 1.2
x1 = 0.852	873.053 ± 0.14	868.741 ± 0.15	864.367 ± 0.15	859.962 ± 0.15	855.538 ± 0.15	1278.6 ± 1.3	1261.3 ± 1.2	1243.9 ± 1.2	1226.3 ± 1.2	1207.5 ± 1.2
x1 = 0.8982	875.005 ± 0.15	870.664 ± 0.15	866.282 ± 0.15	861.844 ± 0.15	857.451 ± 0.15	1278.8 ± 1.3	1261.3 ± 1.3	1243.9 ± 1.2	1226.3 ± 1.2	1207.5 ± 1.2
x1 = 0.9565	877.407 ± 0.15	873.039 ± 0.15	868.667 ± 0.15	864.216 ± 0.15	859.743 ± 0.15	1279 ± 1.3	1261.5 ± 1.3	1243.9 ± 1.3	1226.3 ± 1.3	1207.5 ± 1.2
x1 = 1	879.031 ± 0.15	874.632 ± 0.15	870.204 ± 0.15	865.737 ± 0.15	861.241 ± 0.15	1279 ± 1.3	1260.9 ± 1.3	1242.9 ± 1.3	1224.9 ± 1.3	1207 ± 1.3
